The results in this text go back to patent publication US20070269379A1, “Penetration Enhancer Combinations for Transdermal Delivery” (priority 2003, published 2007).

One series relates to hairless rat skin. Description: Skin observation and histology after patch application in hairless rats. To be noted: skin excised after removing the patch, hematoxylin staining. The format is in vivo.
For series [1], the system named is EpiDerm, a cell culture of normal human derived epidermal keratinocytes. Description: MTT uptake assay of irritation potential on EpiDerm cultures. As to conditions: 4 hrs exposure, vehicle 1:1 PBS:EtOH. The format is cell-based. How it is done: Experiments to assess irritation potential were performed on the binary pairs of library CPEs at the compositions that yielded the maximum ER value in the screening experiments using the methyl thiazol tetrazolium (MTT) uptake assay. Irritation potential was estimated using EpiDermTM (MatTek Co., MA, USA, […].com), a cell culture of normal human derived epidermal keratinocytes. EpiDermTM cultures were stored and handled according to the standard protocol MTT-ET-50 (MatTek Co., MA, USA, […].com). To study the effect of the test formulations on cell viability, cell cultures were exposed to 10 μl of each test formulation for 4 hrs. Each test formulation was analyzed in duplicate. At the end of 4 hrs the assay medium was removed and stored aside at -70° C. for Interleukin-1α assay. The cell cultures were rinsed clear of the test formulations using PBS and incubated with 300 μL of MTT reagent (MatTek Co., MA, USA) for 3 hrs at 37° C. and 5% CO2. At the end of the incubation period the cell cultures were treated with 2 ml of extracting media (provided by MatTek Co) for 2 hrs. 200 μL of this extraction media was then sampled and its optical density (or absorbence) was measured at 570 nm wavelength. The optical absorbance data was then used to calculate the percentage cell viability as recommended in the MTT-ET-50 protocol.

With `CCCCCCCCCCCCOS(=O)(=O)[O-].[Na+]` [SLS, Sodium Lauryl Sulfate], the “histology: state of the stratum corneum” value in the series on hairless rat skin is recorded as “completely detached”.
For `CCCCCCCC/C=C\CCCCCCCC(=O)O` [oleic acid], in series [1], the “irritation potential (IP)” value amounted to 14.5%.
